Positions count from the first letter of the chain named. Names and notes keep the numbering of the source.
B1: D376E: AHAS protein with glutamic acid instead of aspartic acid at position 376 of SEQ ID NO: 10 (protein, listed as Arabidopsis thaliana)
chain: MAAATTTTTTSSSISFSTKPSPSSSKSPLPISRFSLPFSLNPNKSSSSSRRRGIKSSSPSSISAVLNTTTNVTTTPSPTKPTKPETFISRFAPDQPRKGADILVEALERQGVETVFAYPGGASMEIHQALTRSSSIRNVLPRHEQGGVFAAEGYARSSGKPGICIATSGPGATNLVSGLADALLDSVPLVAITGQVPRRMIGTDAFQETPIVEVTRSITKHNYLVMDVEDIPRIIEEAFFLATSGRPGPVLVDVPKDIQQQLAIPNWEQAMRLPGYMSRMPKPPEDSHLEQIVRLISESKKPVLYVGGGCLNSSDELGRFVELTGIPVASTLMGLGSYPCDDELSLHMLGMHGTVYANYAVEHSDLLLAFGVRFDERVTGKLEAFASRAKIVHIDIDSAEIGKNKTPHVSVCGDVKLALQGMNKVLENRAEELKLDFGVWRNELNVQKQKFPLSFKTFGEAIPPQYAIKVLDELTDGKAIISTGVGQHQMWAAQFYNYKKPRQWLSSGGLGAMGFGLPAAIGASVANPDAIVVDIDGDGSFIMNVQELATIRVENLPVKVLLLNNQHLGMVMQWQDRFYKANRAHTFLGDPAQEDEIFPNMLLFAAACGIPAARVTKKADLREAIQTMLDTPGPYLLDVICPHQEHVLPMIPSGGTFNDVITEGDGRIKY
B2: W574L: AHAS protein with leucine instead of tryptophan at position 574 of SEQ ID NO: 10 (protein, listed as Arabidopsis thaliana)
chain: B1 chain with E376D, W574L
B3: P197S: AHAS protein with serine instead of proline at position 197 of SEQ ID NO: 10 (protein, listed as Arabidopsis thaliana)
chain: B1 chain with P197S, E376D

Experiments:
AHAS P197S = AHAS P197S (Arabidopsis thaliana, UniProt P17597, E575Q/P197S); assay type: biochemical
AHAS P197S, sequence (P17597 56-670 P197S/E575Q): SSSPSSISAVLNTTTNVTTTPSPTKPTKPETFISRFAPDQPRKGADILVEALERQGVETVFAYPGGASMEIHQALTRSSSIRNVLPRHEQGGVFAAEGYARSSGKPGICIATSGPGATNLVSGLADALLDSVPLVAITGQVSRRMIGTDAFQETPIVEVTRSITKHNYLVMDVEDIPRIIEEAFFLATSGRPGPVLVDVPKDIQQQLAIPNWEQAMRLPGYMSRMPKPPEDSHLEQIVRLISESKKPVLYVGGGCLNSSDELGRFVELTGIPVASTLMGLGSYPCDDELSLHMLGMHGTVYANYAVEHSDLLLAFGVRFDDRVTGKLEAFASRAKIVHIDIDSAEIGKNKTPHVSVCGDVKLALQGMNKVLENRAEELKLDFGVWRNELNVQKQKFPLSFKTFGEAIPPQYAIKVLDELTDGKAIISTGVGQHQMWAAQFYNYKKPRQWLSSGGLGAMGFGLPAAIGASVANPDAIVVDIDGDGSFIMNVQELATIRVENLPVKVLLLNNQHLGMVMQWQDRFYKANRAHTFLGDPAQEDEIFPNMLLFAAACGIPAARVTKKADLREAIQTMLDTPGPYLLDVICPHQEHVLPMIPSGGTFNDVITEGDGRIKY
Procedure: (§1) Bacteria are grown at 37° C. in LB-medium containing 100 mg/l carbenicillin and 25 mg/l canamycin, induced with 1 mM isopropyl-β-D-thiogalactopyranoside at an OD600 of 0.6, cultivated for 16 hours at 18° C. and harvested by, e.g., centrifugation. Bacterial pellets are resuspended in 100 mM sodium phosphate buffer pH 7.0 containing 0.1 mM thiamine-pyrophosphate, 1 mM MgCl2, and 1 μM FAD at a concentration of 1 gram wet weight per 25 ml of buffer and disrupted by, e.g., sonification. The crude protein extract obtained after centrifugation is used for ALS activity measurements.
(§2) ALS protein can be extracted from leaves or tissue cultures, such as B. napus or B. juncea leaves, or B. napus or B. juncea tissue cultures as described by Ray (Plant Physiol, 1984, 75:827-831). An ALS assays can be carried out in 96-well microtiter plates using a modification of the procedure described by Ray (1984): The reaction mixture contains 20 mM potassium phosphate buffer pH 7.0, 20 mM sodium pyruvate, 0.45 mM thiamine-pyrophosphate, 0.45 mM MgCl2, 9 μM FAD. ALS enzyme and various concentrations of ALS inhibitors can be mixed in a final volume of 90 μl Assays can be initiated by adding enzyme and the assays can be terminated after 75 min incubation at 30° C. by the addition of 40 μl 0.5 M H2SO4.

AHAS W574L = AHAS W574L (Arabidopsis thaliana, UniProt P17597, E575Q/W574L); assay type: biochemical
AHAS W574L, sequence (P17597 56-670 W574L/E575Q): as the sequence (P17597 56-670 P197S/E575Q) above, with S142P, W519L counted along it
Procedure: as §1, §2

AHAS D376E = AHAS D376E (Arabidopsis thaliana, UniProt P17597, D376E/E575Q); assay: biochemical; conditions: for Resistance Factor: AHAS D376E
Procedure: as §1, §2

AHAS D376E-W574L = AHAS D376E-W574L (Arabidopsis thaliana, UniProt P17597, D376E/E575Q/W574L); assay: biochemical; conditions: for Resistance Factor: AHAS D376E-W574L
AHAS D376E-W574L, sequence (P17597 56-670 D376E/W574L/E575Q): as the sequence (P17597 56-670 P197S/E575Q) above, with S142P, D321E, W519L counted along it
Procedure: as §1, §2

AHAS P197S-D376E = AHAS P197S-D376E (Arabidopsis thaliana, UniProt P17597, D376E/E575Q/P197S); assay: biochemical; conditions: for Resistance Factor: AHAS P197S-D376E
AHAS P197S-D376E, sequence (P17597 56-670 P197S/D376E/E575Q): as the sequence (P17597 56-670 P197S/E575Q) above, with D321E counted along it
Procedure: as §1, §2

AHAS P197S-D376E-W574L = AHAS P197S-D376E-W574L (Arabidopsis thaliana, UniProt P17597, D376E/E575Q/P197S/W574L); assay: biochemical; conditions: for Resistance Factor: AHAS P197S-D376E-W574L
AHAS P197S-D376E-W574L, sequence (P17597 56-670 P197S/D376E/W574L/E575Q): as the sequence (P17597 56-670 P197S/E575Q) above, with D321E, W519L counted along it
Procedure: as §1, §2

AHAS P197S-W574L = AHAS P197S-W574L (Arabidopsis thaliana, UniProt P17597, E575Q/P197S/W574L); assay: biochemical; conditions: for Resistance Factor: AHAS P197S-W574L
AHAS P197S-W574L, sequence (P17597 56-670 P197S/W574L/E575Q): as the sequence (P17597 56-670 P197S/E575Q) above, with W519L counted along it
Procedure: as §1, §2

[1] = system: wild-type (WT) oilseed rape; assay: Field herbicide tolerance, visible phytotoxicity; assay type: in vivo, Brassica napus; conditions: gai/ha: imazamox 40, bispyribac-sodium 50, propoxycarbazone-sodium 70, mesosulfuron-methyl 60, pyroxsulam 12.5 + cloquintocet-mexyl 37.5, each + rapeseed oil methylated 366.5
[2] = system: oilseed rape homozygous for HETO133 and HETO134 (133-134); assay: Field herbicide tolerance, visible phytotoxicity (ALS I W574L, ALS III W574L); assay type: in vivo, Brassica napus; conditions: gai/ha: imazamox 40, bispyribac-sodium 50, propoxycarbazone-sodium 70, mesosulfuron-methyl 60, pyroxsulam 12.5 + cloquintocet-mexyl 37.5, each + rapeseed oil methylated 366.5
Source text: (§3) Seeds of spring oilseed rape homozygous for HETO139 and HETO134 were sown in a field according to typical practical agricultural methods together with seeds homozygous for HETO134 and HETO133 (comprising a W574L mutation on ALS III, which were obtained in the same way as HETO134), and with seeds homozygous for HETO134 and HETO132 (comprising a P197S and a W574L mutation on ALS III, which were obtained in essentially the same way as HETO139). Several ALS inhibitor herbicides were applied to the oilseed rape plants by using specific spray equipment for small plot applications.

[3] = system: oilseed rape homozygous for HETO132 and HETO134 (132-134); assay: Field herbicide tolerance, visible phytotoxicity (ALS I W574L, ALS III P197S-W574L); assay type: in vivo, Brassica napus; conditions: gai/ha: imazamox 40, bispyribac-sodium 50, propoxycarbazone-sodium 70, mesosulfuron-methyl 60, pyroxsulam 12.5 + cloquintocet-mexyl 37.5, each + rapeseed oil methylated 366.5
Source text: as §3

[4] = system: oilseed rape homozygous for HETO139 and HETO134 (139-134); assay: Field herbicide tolerance, visible phytotoxicity (ALS I W574L, ALS III P197S-D376E); assay type: in vivo, Brassica napus; conditions: gai/ha: imazamox 40, bispyribac-sodium 50, propoxycarbazone-sodium 70, mesosulfuron-methyl 60, pyroxsulam 12.5 + cloquintocet-mexyl 37.5, each + rapeseed oil methylated 366.5
Source text: as §3

AHAS WT = AHAS WT (Arabidopsis thaliana, UniProt P17597); assay: biochemical
AHAS WT, sequence (P17597 56-670 E575Q): as the sequence (P17597 56-670 P197S/E575Q) above, with S142P counted along it
Procedure: as §1, §2

AHAS enzymatic activity = assay: Kinetic parameters of enzymatic activity of AHAS mutants; assay type: biochemical
Procedure: The ALS inhibitor sensitivity and kinetic parameters of AHAS proteins comprising the P197S mutation, the W574L mutation, the D376E mutation, and combinations thereof in one protein, were determined essentially as described in WO 2013/127766.

Row | Molecule | Resistance Factor (AHAS P197S) | Resistance Factor (AHAS W574L) | IC50 (AHAS D376E) | Resistance Factor (AHAS D376E) | IC50 (AHAS D376E-W574L) | Resistance Factor (AHAS D376E-W574L) | IC50 (AHAS P197S-D376E) | Resistance Factor (AHAS P197S-D376E) | IC50 (AHAS P197S-D376E-W574L) | Resistance Factor (AHAS P197S-D376E-W574L) | IC50 (AHAS P197S-W574L) | Resistance Factor (AHAS P197S-W574L) | Percentage phytotoxicity ([1]; 9 DAA) | Percentage phytotoxicity ([1]; 16 DAA) | Percentage phytotoxicity ([1]; 24 DAA) | Percentage phytotoxicity ([2]; 9 DAA) | Percentage phytotoxicity ([2]; 16 DAA) | Percentage phytotoxicity ([2]; 24 DAA) | Percentage phytotoxicity ([3]; 9 DAA) | Percentage phytotoxicity ([3]; 16 DAA) | further results
1 | COc1cc(OC)nc(Oc2cccc(Oc3nc(OC)cc(OC)n3)c2C(=O)O)n1 [Bispyribac-sodium, bispyribac-sodium] | 4 | 447 | 1 µM | 56 | > 100 µM | >5623 | 7.94 µM | 447 | > 100 µM | >5623 | > 100 µM | >5623 | 76.7% | 98.3% | 100% | 56.7% | 88.3% | 92.7% | 46.7% | 71.7% | Percentage phytotoxicity ([3]; 24 DAA): 43.3%; Percentage phytotoxicity ([4]; 9 DAA): 40%; Percentage phytotoxicity ([4]; 16 DAA): 65%; Percentage phytotoxicity ([4]; 24 DAA): 43.3%
2 | COCc1cnc(C2=NC(C)(C(C)C)C(=O)N2)c(C(=O)O)c1 (stereo not drawn) [Imazamox, imazamox] | 1 | >22 | 50.1 µM | 11 | > 100 µM | >22 | > 100 µM | >22 | > 100 µM | >22 | > 100 µM | >22 | 73.3% | 98% | 99% | 6.7% | 10% | 0% | 6.7% | 8.7% | Percentage phytotoxicity ([3]; 24 DAA): 0%; Percentage phytotoxicity ([4]; 9 DAA): 13.3%; Percentage phytotoxicity ([4]; 16 DAA): 13.3%; Percentage phytotoxicity ([4]; 24 DAA): 0%
3 | COC(=O)c1ccc(CNS(C)(=O)=O)cc1S(=O)(=O)NC(=O)Nc1nc(OC)cc(OC)n1 [Mesosulfuron-methyl, mesosulfuron-methyl] | 65 | 25770 |  | 12915 |  | >64730 |  |  |  | >64730 |  | >64730 | 76.7% | 98% | 96% | 11.7% | 13.3% | 3.3% | 11.7% | 11.7% | Percentage phytotoxicity ([3]; 24 DAA): 20.3%; Percentage phytotoxicity ([4]; 9 DAA): 9.3%; Percentage phytotoxicity ([4]; 16 DAA): 13.3%; Percentage phytotoxicity ([4]; 24 DAA): 5%
4 | COc1cc(OC)nc(NC(=O)NS(=O)(=O)c2ncccc2C(=O)N(C)C)n1 [Nicosulfuron, nicosulfuron] | 6 | >607 | > 100 µM | >607 | > 100 µM | >607 | > 100 µM | >607 | > 100 µM | >607 | > 100 µM | >607 |  |  |  |  |  |  |  |  | IC50 (AHAS WT): 0.158 µM
5 | CCCOc1nn(C(=O)[N-]S(=O)(=O)c2ccccc2C(=O)OC)c(=O)n1C.[Na+] [PROPOXYCARBAZONE-SODIUM, propoxycarbazone-sodium] |  |  |  |  |  |  |  |  |  |  |  |  | 76.7% | 97% | 97.7% | 53.3% | 82.7% | 76.7% | 40% | 36.7% | Percentage phytotoxicity ([3]; 24 DAA): 11.7%; Percentage phytotoxicity ([4]; 9 DAA): 15%; Percentage phytotoxicity ([4]; 16 DAA): 20%; Percentage phytotoxicity ([4]; 24 DAA): 1.7%
6 | CCS(=O)(=O)c1cccnc1S(=O)(=O)NC(=O)Nc1nc(OC)cc(OC)n1 [Rimsulfuron, rimsulfuron] | 18 | 447 | 1.26 µM | 56 | > 100 µM | >4466 | > 100 µM | >4466 | > 100 µM | >4466 | > 100 µM | >4466 |  |  |  |  |  |  |  |  | IC50 (AHAS WT): 0.02 µM
7 | CCS(=O)(=O)c1nc2ccccn2c1S(=O)(=O)NC(=O)Nc1nc(OC)cc(OC)n1 [Sulfosulfuron, sulfosulfuron] | 1848 | >4641 | 25.1 µM | 1166 | > 100 µM | >4641 | > 100 µM | >4641 | > 100 µM | >4641 | > 100 µM | >4641 |  |  |  |  |  |  |  |  | IC50 (AHAS WT): 0.02 µM
8 | B1 |  |  |  |  |  |  |  |  |  |  |  |  |  |  |  |  |  |  |  |  | Km (AHAS enzymatic activity): 1.4 mM; Vmax (AHAS enzymatic activity): 103.0 deltaOD550/min mg protein; relative Vmax (AHAS enzymatic activity): 2.7
9 | B2 |  |  |  |  |  |  |  |  |  |  |  |  |  |  |  |  |  |  |  |  | Km (AHAS enzymatic activity): 7 mM; Vmax (AHAS enzymatic activity): 54.4 deltaOD550/min mg protein; relative Vmax (AHAS enzymatic activity): 1.4
10 | B3 |  |  |  |  |  |  |  |  |  |  |  |  |  |  |  |  |  |  |  |  | Km (AHAS enzymatic activity): 5.5 mM; Vmax (AHAS enzymatic activity): 50.0 deltaOD550/min mg protein; relative Vmax (AHAS enzymatic activity): 1.3
